The text below walks through data of patent US20170066717A1, “NEW PHENYLAZETIDINECARBOXYLATE OR -CARBOXAMIDE COMPOUNDS” (INVENTIVA, priority 2014, published 2017).

The EC50 is the concentration needed to bring the measured effect to its halfway point. Usually Cmax stands for the peak of the concentration-time curve. One may read the Kp as the ratio of the level in a tissue or fluid to that in plasma or blood. As usually defined, the melting point is the temperature, or range, at which the solid turns liquid. Broadly, the Emax is the greatest response seen or fitted, relative to the assay's reference.

One data set deals with T1, NURR-1/RXRα (Homo sapiens, UniProt P19793).
T1 construct: expressed in transfected cells; host or cells: Cos-7 cells
T1 sequence (P19793 whole entry): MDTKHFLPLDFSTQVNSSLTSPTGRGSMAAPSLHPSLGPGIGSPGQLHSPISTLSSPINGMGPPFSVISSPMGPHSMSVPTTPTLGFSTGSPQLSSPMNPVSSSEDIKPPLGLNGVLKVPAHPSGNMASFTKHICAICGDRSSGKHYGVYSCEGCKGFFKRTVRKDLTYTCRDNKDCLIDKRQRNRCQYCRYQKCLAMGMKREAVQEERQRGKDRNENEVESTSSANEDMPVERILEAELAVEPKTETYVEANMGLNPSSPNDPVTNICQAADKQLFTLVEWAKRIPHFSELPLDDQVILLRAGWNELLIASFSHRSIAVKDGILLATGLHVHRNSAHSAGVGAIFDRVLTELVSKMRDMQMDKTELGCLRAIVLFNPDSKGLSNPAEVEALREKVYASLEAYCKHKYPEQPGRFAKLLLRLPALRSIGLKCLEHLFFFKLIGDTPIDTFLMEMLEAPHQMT
T1 sequence (P43354 whole entry partner): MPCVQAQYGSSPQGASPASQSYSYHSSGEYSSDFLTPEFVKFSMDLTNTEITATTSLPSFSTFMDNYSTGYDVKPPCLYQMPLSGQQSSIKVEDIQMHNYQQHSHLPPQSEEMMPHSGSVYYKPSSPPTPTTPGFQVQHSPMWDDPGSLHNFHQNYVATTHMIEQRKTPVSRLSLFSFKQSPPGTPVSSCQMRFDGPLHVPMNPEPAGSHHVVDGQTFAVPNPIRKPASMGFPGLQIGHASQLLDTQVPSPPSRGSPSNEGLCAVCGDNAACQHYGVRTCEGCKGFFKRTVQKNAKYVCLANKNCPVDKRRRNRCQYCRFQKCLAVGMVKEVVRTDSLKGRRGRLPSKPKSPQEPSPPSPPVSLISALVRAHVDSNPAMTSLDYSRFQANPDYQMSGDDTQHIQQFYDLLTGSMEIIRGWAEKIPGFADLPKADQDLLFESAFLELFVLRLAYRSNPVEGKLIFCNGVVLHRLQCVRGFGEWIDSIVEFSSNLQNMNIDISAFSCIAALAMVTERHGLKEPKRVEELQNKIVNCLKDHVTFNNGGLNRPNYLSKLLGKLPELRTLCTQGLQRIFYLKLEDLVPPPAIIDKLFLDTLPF
T1 sequence (P04386 1-147 partner limits assumed): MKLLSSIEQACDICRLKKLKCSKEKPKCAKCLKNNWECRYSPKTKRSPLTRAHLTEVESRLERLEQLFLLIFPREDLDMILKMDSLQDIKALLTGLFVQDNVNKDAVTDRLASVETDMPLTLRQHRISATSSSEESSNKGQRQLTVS
Put plainly: Transactivation test, NURR-1-Gal4/RXRα, luciferase reporter in Cos-7 cells. The class given is cell-based. As to conditions: for EC50: Cos-7 cells, NURR-1-Gal4/RXRα, luciferase reporter, read-out: hNurr1_RXRaFL EC50; for Emax: COS-7, induction level relative to reference XCT0135908 at 2×10^−5 M (=100%), read-out: hNurr1_RXRaFL Emax (%).

A further data set deals with T2, NURR-1/RXRγ (Homo sapiens, UniProt P48443).
T2 construct: expressed in transfected cells; host or cells: Cos-7 cells
T2 sequence (P48443 whole entry): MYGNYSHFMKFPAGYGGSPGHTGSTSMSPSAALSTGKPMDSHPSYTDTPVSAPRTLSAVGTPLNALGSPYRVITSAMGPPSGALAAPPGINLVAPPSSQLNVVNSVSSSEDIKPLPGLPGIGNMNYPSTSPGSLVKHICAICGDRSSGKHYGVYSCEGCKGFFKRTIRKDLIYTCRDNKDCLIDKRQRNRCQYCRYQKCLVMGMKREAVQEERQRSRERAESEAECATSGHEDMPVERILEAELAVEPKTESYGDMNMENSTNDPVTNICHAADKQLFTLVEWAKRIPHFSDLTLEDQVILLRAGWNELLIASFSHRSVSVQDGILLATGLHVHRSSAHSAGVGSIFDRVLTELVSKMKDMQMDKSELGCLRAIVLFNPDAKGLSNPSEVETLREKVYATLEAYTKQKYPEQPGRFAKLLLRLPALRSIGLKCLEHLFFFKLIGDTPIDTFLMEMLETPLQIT
T2 sequence (P43354 whole entry partner): as the sequence (P43354 whole entry partner) above
T2 sequence (P04386 1-147 partner limits assumed): as the sequence (P04386 1-147 partner limits assumed) above
Put plainly: Transactivation test, NURR-1-Gal4/RXRγ, luciferase reporter in Cos-7 cells. Type of data set: cell-based. As to conditions: for EC50: Cos-7 cells, NURR-1-Gal4/RXRγ, luciferase reporter, read-out: hNurr1_RXRgFL EC50; for Emax: COS-7, induction level relative to reference XCT0135908 at 2×10^−5 M (=100%), read-out: hNurr1_RXRgFL Emax (%). On the technique in general: Reporter assays use an easily measured gene product as a stand-in for the process of interest.

Data set [1] in a line: Plasma pharmacokinetics in mice after oral administration. To be noted: mouse, male C57/Bl6 mice, oral 10 mg/kg; for AUC: sampling 15 min to 7 h, log-linear trapezoidal method, read-out: AUCplasma; for Cmax: suspension in 1% methylcellulose/0.1% Poloxamer 188. The class given is in vivo. As for the experimental part: (§1) Three series of in vivo tests were carried out with compounds representative of the invention, for the purpose of determining their pharmacokinetic plasma profile and their brain penetration.
1. Study of the Plasma Phannacokinectis in Mice After Oral Administration
Male C57/B16 mice (25-30 g) originating from the establishment Janvier, Le Genest-St-Isle, France were used for this study (9 mice per dose). The animals were fed with standard feed for rodents (Purina Mills, St. Louis, Mo.), placed in cages and subjected to light/darkness cycles of 12 h/12 h, the temperature of the room being maintained at 22±2° C. and the humidity level at 55±10%.
The mice were not deprived food before the administration. Water was provided at will throughout the study. The test compound was admistered orally at 10 mg/kg. For the oral administration at 10 mg/kg, the animals were green, by gavage, 10 mL/kg of a suspension of the test compound, prepared in 1% methylcellulose, 400 cps/0.1% Poloxamer 188/water.
The animals were sacrificed under anesthesia at times 15 min, 30 min, 1 h, 3 h and 7 h after gavage. The blood was collected at each time, and from each animal sacrificed 0.5 mL of blood collected in 1.5 mL tubes containing 20 μL of evaporated anticoagulant (solution of sodium heparinate at 1000 IU/mL) was centrifuged at 4500 g for 3 min in order to obtain approximately 200 μL of plasma. The plasma was divided up into 2 aliquots of 70 μL minimum, which were stoted at −20° C. until they were treated by protein precipitation and then analysis by liquid chromatography coupled to tandem mass spectrometry (LC-MS/MS) in order to quantify the compound tested.
The pharmacokinetic plasma parameters in the mice after oral administration were determined using a non-compartmental approach with the Phoenix WinNonLin software. The area under the curve (AUC0-1) was determined bv the log-linear trapezoidal method. The tesults are brought together in the following table.

The nature of data set [2]: Brain penetration in rats after intravenous administration. The class given is in vivo. As to conditions: rat; for Kp at 4 h: male, Wistar, intravenous, 4 mg/kg, ratio of Cmax brain to Cmax plasma after the 4 hours of infusion, rats, read-out: Kp (partition coefficient between the brain and the plasma); for Cmax at 4 h: male Wistar rats, 4 mg/kg iv infusion into the jugular vein for 4 hours, plasma at end of infusion. As for the experimental part:
as §1
2. Study of the Brain Penetration in Rats After Intravenous Administration
Male Wistar rats (250-300 g) originating from the establishment Janvier, Le Genest-St-Isle, France were used for this study (4 rats per study). The animals were fed with standard feed for rodents (Purina Mills, St. Louis, Mo.), placed in cages and subjected to light/darkness cycles of 12 h/12 h, the room temperature being maintained at 22±2° C. and the humidity level at 55±10%. The rats were not deprived food before the administration. Water was provided at will throughout the study.
The test compound was administered intravenously at 4 mg/kg by infusion into the jugular vein for 4 hours. For the intravenous administration, the animals were infused with 12 mL/kg of a solution of the test compound, prepared in 2% Cremophor EL/0.9% NaCl.
The animals were sacrificed under anesthesia after 4 hours of infusion. The blood and the brain were collected from each sacrificed animal 0.5 mL of blood collected in 1.5 mL tubes containing 20 μL of evaporated anticoagulant (solution of sodium heparinate at 1000 IU/mL) was centrifuged at 4500 g for 3 min in order to obtain approximately 200 μL of plasma. The plasma was divided up into 2 aliquots of 70 μL minimum, which were stored at −20° C. until they were treated by protein precipitation and then analysis by liquid chromatography coupled to tandem mass spectrometry (LC-MS/MS) in order to quantify the compound tested.
The brains were immersed in liquid nitrogen directly after they were removed, then stored at −20° C. for analysis. The brains were then ground in the presence of an aqueous/organic solvent mixture in order to obtain a homogenate. These homogenates were then centrifuged and the compound tested was extracted from the supernatant obtained, by liquid-liquid extraction, and then quantified by LC-MS/MS.
The brain penetration in the rats is represented by the Kp, which is the partition coefficient between the brain and the plasma. It is calculated by the ratio of the concentration measured in the brain (Cmax brain) and the plasma (Cmax plasma) after the 4 hours of infusion.

Data set [3] concerns dopaminergic neurons of primary culture of rat embryo mesencephalon treated with MPP+. Put plainly: Neuroprotection in primary culture of rat embryo mesencephalon treated with MPP+ (count of tyrosine hydroxylase expressing cells). The class given is cell-based. To be noted: recombinant human BDNF 10 ng/mL = 100%, 2 days with MPP+. As for the experimental part: Another in vitro test was carried out with the compounds according to the invention, for the purpose of verifying that the molecules indeed have the expected neuroprotective effect in vitro.
The compounds were tested in a model of primary culture of rat embryo mesencephalon treated with 1-methyl-4-phenylpyridinium (MPP+), which is the active metabolite of 1-methyl-4-phenyl-1,2,3,6-tetrahydropyridine (MPTP). MPP+ enters into dopananergic neurons via the dopamine transporter and causes the death of these dopaminergic neurons. The following protocol was used.
Gestating female rats (15 days of gestation) were euthanized and the rat embryos were removed. The mesencephalons were removed. The tissue was then dissociated mechanically and by using trypsin. The cells collected after centrifugation were distributed into 96-well plates and left to stand for 5 days. The culture conditions made it possible to obtain a cell layer composed of neurons (dopaminergic and others) and astrocytes. On the 6th day, the cells were optionally treated with MPP+ in the presence or absence of test compound. After 2 days of incubation, the cells were fixed and various cell labellings were carried out; staining of the nuclei with the Hoechst fluorescent label and immunolabelling of tyrosine hydroxylase. The cells expressing tyrosine hydroxylase were counted using an image analyzer coupled to an optical microscope.
Recombinant human BDNF trophic factor (10 ng/mL) was used as reference. The activities of the compounds are given as percentages of activity relative to the BDNF reference, the activity of which is arbitrarily defined as being equal to 100%.

Where [4] appears, read: induction level relative to reference XCT0135908 at 2×10^−5 M (=100%).

In turn, `CC(C)CC1Oc2cc(C(F)(F)F)ccc2N(c2cccc(N3CC(C(=O)O)C3)c2)C1=O` (single isomer, unassigned; isomer 1) [Example 246-1, 1-[3-[2-isobutyl-3-oxo-7-(trifluoromethyl)-1,4-benzoxazin-4-yl]phenyl]azetidine-3-carboxylate acid, isomer 1] yielded a melting point of 68 to 74 °C. Further, the EC50 at NURR-1/RXRα was determined as 7 nM. For the same compound, the “hNurr1_RXRaFL Emax (%)” value at NURR-1/RXRα (setting [4]) is 97%. The EC50 on NURR-1/RXRγ amounted to 50 nM. Further, the “hNurr1_RXRgFL Emax (%)” value at NURR-1/RXRγ (setting [4]) came to 95%. Moreover, in data set [1], the AUC worked out at 48200 ng·h/mL and the Cmax is 15200 ng/mL. In data set [2], the concentration ratio (Kp) at 4 h was found to be 0.13 and the Cmax at 4 h came to 5800 ng/mL.
On to `Cc1cn(-c2cccc(N3CC(C(=O)NCCC#N)C3)c2)c2ccc(C(F)(F)F)cc12` [Example 159, N-(2-cyanoethyl)-1-[3-[3-methyl-5-(trifluoromethyl)indol-1-yl]phenyl]azetidine-3-carboxamide], for which the maximal response (Emax) at NURR-1/RXRα was found to be 115%; at NURR-1/RXRγ it was 110%. The half-maximal effective concentration (EC50) at NURR-1/RXRα was 3 nM; at NURR-1/RXRγ, 6 nM. Moreover, the “percentage of activity relative to the BDNF reference” value in data set [3] (compound 1 μM) is 73%; in data set [3] (compound 10 μM), 101%.
Turning to `Cc1cn(-c2cccc(N3CC(C(=O)NCCCn4ccnc4)C3)c2)c2ccc(C(F)(F)F)cc12` [Example 160], the maximum response (Emax) on NURR-1/RXRα was 115%; at NURR-1/RXRγ, 124%. In addition, the values for the EC50 at NURR-1/RXRα and at NURR-1/RXRγ were 15 nM and 31 nM, respectively. Moreover, the “percentage of activity relative to the BDNF reference” value is 54% in data set [3] (compound 1 μM) and 79% in data set [3] (compound 10 μM).
Regarding `COCCNC(=O)C1CN(c2cccc(-n3cc(C)c4cc(C(F)(F)F)ccc43)c2)C1` [Example 173, N-(2-methoxyethyl)-1-[3-[3-methyl-5-(trifluoromethyly)indol-1-yl]phenyl]azetidine-3-carboxamide], the values for the maximum response (Emax) at NURR-1/RXRα and on NURR-1/RXRγ were 103% and 102%, respectively. Moreover, the half-maximal effective concentration (EC50) at NURR-1/RXRα is under 1 nM; on NURR-1/RXRγ it was 5 nM. The figures for the “percentage of activity relative to the BDNF reference” value in data set [3] (compound 1 μM) and in data set [3] (compound 10 μM) were 18% and 72%, respectively.
In the case of `CCC1COc2cc(C(F)(F)F)cc(-c3cccc(N4CC(C(=O)O)C4)c3)c2N1` (stereo not drawn) [Example 186, 1-[3-[3-ethyl-7-(trifluoromethyl)-3.4-dihydro-2H-1,4-benzoxazin-5-yl]phenyl]azetidine-3-carboxylic acid], the melting point was 61 to 64 °C. In addition, at NURR-1/RXRα, the Emax worked out at 102% and the concentration for a half-maximal effect (EC50) amounted to 3 nM. In addition, on NURR-1/RXRγ, the maximum response (Emax) stood at 94% and the half-maximal effective concentration (EC50) came out at 11 nM. Also, in data set [1], the AUC came to 12100 ng·h/mL and the Cmax stood at 6420 ng/mL. In data set [2], the Kp at 4 h worked out at 0.15 and the peak level (Cmax at 4 h) was 932 ng/mL.
For the compound `CCC1COc2cc(C(F)(F)F)ccc2N1c1cccc(N2CC(C(=O)O)C2)c1` (stereo not drawn) [Example 217, 1-[3-[3-ethyl-7-(trifluoromethyl)-2,3-dihydro-1,4-benzoxazin-4-yl]phenyl]azetidine-3-carboxylic acid], the melting point lay within 61 to 74 °C. Further, at NURR-1/RXRα, the maximal effect (Emax) came out at 109% and the EC50 was 14 nM. At NURR-1/RXRγ, the Emax came out at 125% and the half-maximal effective concentration (EC50) stood at 46 nM. In data set [1], the AUC is 30300 ng·h/mL and the Cmax stood at 10200 ng/mL.
Take `CNC(=O)C1CN(c2cccc(N3CC(C)(C)Oc4cc(C(F)(F)F)ccc43)c2)C1` [Example 274, 1-[3-[2,2-dimethyl-7-(trifluoromethyl)3H-1,4-nemzoxazin-4-yl]phenyl]-N-methylazetidine-3-carboxamide]: at NURR-1/RXRα, the maximal effect (Emax) is 110% and the EC50 came out at 6 nM. On NURR-1/RXRγ, the Emax came to 110% and the EC50 came to 8 nM. Further, in data set [1], the AUC came to 576 ng·h/mL and the concentration peaked (Cmax) at 252 ng/mL. In data set [2], the Kp at 4 h amounted to 3.06 and the Cmax at 4 h is 337 ng/mL.
